Patent publication US20210360924A1, “PLANT OR SEED COATING” (University of Southampton, priority 2017, published 2021)

Target: G. pallida SER-7 (Globodera pallida, UniProt A0A183BS20, DEL280-286/G462A/H333Q/S454N/S6T/Y334H)
Test: Cut head pharyngeal pumping assay, ser-7 (tm1325) expressing Gpa-ser-7

## NCCc1c[nH]c2ccc(O)cc12 [serotonin, 5-hydroxytryptamine]
  EC50: 3.9 µM
